Laboratory results as given in PMC8591608, “DNDI-6148: A Novel Benzoxaborole Preclinical Candidate for the Treatment of Visceral Leishmaniasis” (Journal of Medicinal Chemistry, 2021).
Read-outs that look alike come from different tables or passages of the source.

Columns and labels:
PMM cytotoxicity assay = type: cell-based; details: mouse, primary peritoneal mouse macrophages (PMM); for CC50 at 72 h / CC50 at 3 days: geometric mean of at least two independent tests
Protocol: (§1) Primary peritoneal mouse macrophages (PMM) were collected two days after peritoneal stimulation with a 2% potato starch suspension. MRC5SV2 cells (diploid human embryonic lung fibroblasts) were cultured in minimal essential medium (MEM) containing Earle’s salts, supplemented with L-glutamine, NaHCO3, and 5% inactivated fetal calf serum. All cultures and assays were conducted at 37 °C under an atmosphere of 5% CO2.
(§2) Assays were performed in sterile 96-well microtiter plates, each well containing 10 μL of the compound dilution and 190 μL of MRC5SV2 or PMM inoculum (3 × 10^4 cells/mL). Cell growth was compared to untreated controls (100% growth) and assay-media controls (0% growth). After three-day incubation, cell viability was assessed fluorometrically by adding resazurin (50 μL/well of a stock solution in phosphate buffer (50 μg/mL)), incubating for 4 h and measuring fluorescence (λex 550 nm, λem 590 nm). The results were expressed as a percentage reduction in cell growth compared to untreated control wells. […] Tamoxifen was included as the reference drug.

[1] = Liver microsome stability, hamster; type: in vitro ADME; details: golden (Syrian), hamster liver microsomes
Protocol: (§3) Tests were performed by WuXi AppTec, China. Test compounds (at 1 μM) or positive controls (testosterone, propafenone, and diclofenac) were incubated at 37 °C with liver microsomes from Balb/c mouse, golden (Syrian) hamster, Sprague-Dawley rat, Beagle dog, or human in the presence of a NADPH regenerating system and phosphate buffer (100 mM, pH 7.4) at 0.4 or 0.8 mg/mL microsomal protein. The samples were removed at time intervals from 0 to 60, 90, or 120 min and immediately mixed with cold methanol supplemented or not with acid (3% formic acid) and centrifuged prior to analysis by LC-MS/MS using tolbutamide or propranolol as internal standards.

L. donovani = assay: Intramacrophage L. donovani assay; type: cell-based; details: for EC50: Leishmania donovani
Protocol: (§4) L. infantum (MHOM/MA/67/ITMAP263) and L. donovani (MHOM/ET/67/L82) were maintained in the golden (Syrian) hamster (Mesocricetus auratus). Ex vivo amastigotes were collected from the spleen of an infected donor hamster using two centrifugation purification steps: 230g for 10 min, keeping the supernatant layer, and 4100g for 30 min, keeping the pellet. The spleen parasite burden was assessed using the Stauber technique.[25] For in vitro assays, the inoculum was prepared in RPMI-1640 medium, supplemented with 200 mM L-glutamine, 16.5 mM NaHCO3, and 5% inactivated fetal calf serum. For the in vivo model, an infection inoculum containing 2 × 10^7 amastigotes/100 μL was prepared in phosphate-buffered saline (PBS).
(§5) The assay was performed in sterile 96-well microtiter plates, each well containing 10 μL of the compound dilution and 190 μL of the PMM/amastigote inoculum (3 × 10^4 cells/4.5 × 10^5 parasites per well). Parasite multiplication was compared to untreated infected controls (100% growth) and uninfected controls (0% growth). After five-day incubation, total parasite burdens were microscopically assessed after staining the cells with a 10% Giemsa solution. The results were expressed as a percentage reduction in parasite burden compared to untreated control wells. EC50 values were determined using an extended dose range (2-fold compound dilutions, 8-point concentration curve). Miltefosine was used as the reference drug.[26] For selected compounds, this assay format was also run using the L. donovani inoculum.

L. infantum [2] = assay: L. infantum hamster model of VL; type: in vivo
Protocol: as §4
Female golden hamsters for the in vivo model of visceral leishmaniasis were purchased from Janvier, France (body weight 80–100 g). This study using laboratory rodents was carried out in strict accordance with all mandatory guidelines (EU directives, including the Revised Directive 2010/63/EU on the protection of Animals used for Scientific Purposes that came into force on 01/01/2013, and the declaration of Helsinki in its latest version) and was approved by the ethical committee of the University of Antwerp, Belgium (UA-ECD 2011-74). Female golden hamsters for the pharmacokinetic study were purchased from Vital River, Beijing, China. This study was conducted following institutional review and in accordance with institutional and national guidelines at WuXi AppTec (the Institutional Animal Care and Use Committee (IACUC)). Balb/c mice for the in vivo model of visceral leishmaniasis (LSHTM) were purchased from Charles River, U.K., and related studies were conducted under license PPL 70/8427 from the U.K. Home Office.
Female golden hamsters were randomly allocated to experimental groups of six animals each, based on body weight. At the start of the experiment (Day 0), each animal was infected with L. infantum or L. donovani inoculum, delivered by intracardial injection. Six hamsters were assigned to the vehicle-treated, infected control group. Six hamsters were assigned per group (1 group/compound) for the evaluation of compound and miltefosine. […] At Day 35 (10 days after the final oral dose), all animals were euthanized and autopsies were conducted. The study evaluated the following parameters. • 1. Adverse effects: all animals were observed daily for the occurrence/presence of adverse effects. • 2. Body weight: all animals were weighed twice per week to monitor general health. • 3. Parasite burden: amastigote burdens in each target organ (liver, spleen, and bone marrow) were determined at Day 35. The organs of individual animals were weighed (except for bone marrow). Impression smears were stained with Giemsa for microscopic examination of the total amastigote burden, defined as the mean number of amastigotes per cell multiplied by the number of cells counted (minimum 500 nuclei); the results were expressed as a percentage reduction in amastigote burden compared to vehicle-treated, infected control animals.

MRC5 cytotoxicity assay = type: cell-based; details: human, MRC5SV2 cells (human embryonic lung fibroblasts), geometric mean of at least two independent tests
Protocol: as §1, §2

[3] = Liver microsome stability, human; type: in vitro ADME; details: human liver microsomes
Protocol: as §3

[4] = Hamster oral pharmacokinetic study; type: in vivo, golden Syrian hamsters; details: female, golden Syrian, plasma
Protocol: […] The K2-EDTA anticoagulant was added to blood samples collected from 0.25 to 36 h, which were processed to plasma and stabilized with phosphoric acid (1% final) before analysis by LC-MS/MS. PK parameters were calculated using WinNonlin software (version 6.3).

L. infantum [5] = assay: Intramacrophage L. infantum assay; type: cell-based; details: Leishmania infantum
Protocol: as §4, §5

[6] = pH 7.4, Table 4, read-out: HamLM Clint
[7] = Table 6, geometric mean of at least two independent tests
[8] = pH 7.4, Table 4, read-out: HLM Clint
[9] = single p.o. dose 50 mg/kg, read-out: AUC0–24 after single p.o. dose of 50 mg/kg
[10] = Table 4, geometric mean of at least two independent tests, read-out: intramacrophage L. infantum EC50
[11] = pH 7.4, Table 5, read-out: HamLM Clint
[12] = pH 7.4, Table 5, read-out: HLM Clint
[13] = Table 5, geometric mean of at least two independent tests, read-out: intramacrophage L. infantum amastigote EC50
[14] = Table 2, geometric mean of at least three independent assays

SMILES | CC50 at 72 h (PMM cytotoxicity assay; Table 4) | EC50 (L. donovani; [7]) | reduction in parasite burden, bone marrow, 5 days (L. infantum [2]; 25 mg/kg BID p.o. for 5 days) | reduction in parasite burden, liver, 5 days (L. infantum [2]; 25 mg/kg BID p.o. for 5 days) | reduction in parasite burden, spleen, 5 days (L. infantum [2]; 25 mg/kg BID p.o. for 5 days) | reduction in parasite burden, bone marrow, 5 days (L. infantum [2]; 50 mg/kg BID p.o. for 5 days) | reduction in parasite burden, liver, 5 days (L. infantum [2]; 50 mg/kg BID p.o. for 5 days) | reduction in parasite burden, spleen, 5 days (L. infantum [2]; 50 mg/kg BID p.o. for 5 days) | microsomal CLint at 2 h, 1 µM [1, 11] | CC50 at 72 h (MRC5 cytotoxicity assay; Table 5) | microsomal CLint at 1 μM [3, 12] | EC50 (L. infantum [5]; [13]) | CC50 at 72 h (PMM cytotoxicity assay; Table 5) | other results
O=C(Nc1ccc2c(c1)B(O)OC2)c1cn(CC(F)(F)F)nc1C(F)(F)F [Compound 5, N-(1-Hydroxy-1,3-dihydrobenzo[c][1,2]oxaborol-6-yl)-1-(2,2,2-trifluoroethyl)-3-(trifluoromethyl)-1H-pyrazole-4-carboxamide] | 50 µM | 1 µM | 77.0% | 89.7% | 90.0% | 98.0% | 99.7% | 99.2% |  |  |  |  |  | CC50 at 3 days (PMM cytotoxicity assay; Table 6): 53.8 µM; microsomal CLint at 2 h, 1 µM [1, 6]: 41 µL/min/mg; CC50 at 3 days (MRC5 cytotoxicity assay; Table 4): > 64 µM; microsomal CLint at 1 μM [3, 8]: < 11.9 µL/min/mg; AUC(0-t) [4, 9]: 21000 ng·h/mL; EC50 (L. infantum [5]; [10]): 1.6 µM
Cc1c(C(=O)Nc2ccc3c(c2)B(O)OC3)cnn1-c1ccccn1 [Compound 16, N-(1-Hydroxy-1,3-dihydrobenzo[c][1,2]oxaborol-6-yl)-5-methyl-1-(pyridin-2-yl)-1H-pyrazole-4-carboxamide] | 59 µM | 1.2 µM | 72.2% | 87.8% | 87.7% | 95.1% | 99.6% | 98.5% |  |  |  |  |  | CC50 at 3 days (PMM cytotoxicity assay; Table 6): > 64 µM; microsomal CLint at 2 h, 1 µM [1, 6]: 57 µL/min/mg; CC50 at 72 h (MRC5 cytotoxicity assay; Table 4): 61 µM; CC50 at 3 days (MRC5 cytotoxicity assay; Table 6): 61.1 µM; microsomal CLint at 1 μM [3, 8]: < 11.9 µL/min/mg; AUC(0-t) ([4]; study run using a single 25 mg/kg p.o. dose, read-out: AUC0–24 after single p.o. dose): 7900 ng·h/mL; EC50 (L. infantum [5]; [10]): 3.1 µM
O=C(Nc1ccc2c(c1)B(O)OC2)c1cn(-c2ccccn2)nn1 [Compound 22, N-(1-Hydroxy-1,3-dihydrobenzo[c][1,2]oxaborol-6-yl)-1-(pyridin-2-yl)-1H-1,2,3-triazole-4-carboxamide] |  |  |  |  |  |  |  |  | 18 µL/min/mg | 44.8 µM | < 11.9 µL/min/mg | 1.7 µM |  | CC50 at 3 days (PMM cytotoxicity assay; Table 5): > 64 µM
COc1cccc(-n2nnc(C(=O)Nc3ccc4c(c3)B(O)OC4)c2C)n1 [Compound 25, N-(1-Hydroxy-1,3-dihydrobenzo[c][1,2]oxaborol-6-yl)-1-(6-methoxypyridin-2-yl)-5-methyl-1H-1,2,3-triazole-4-carboxamide] |  |  |  |  |  |  |  |  | 40 µL/min/mg |  |  | 0.8 µM | 32 µM | CC50 at 3 days (MRC5 cytotoxicity assay; Table 5): > 64 µM; microsomal CLint at 2 h, 1 µM [3, 12]: 23 µL/min/mg
Cc1oc(C(=O)Nc2ccc3c(c2)B(O)OC3)cc1-c1ccccn1 [Compound 29, N-(1-Hydroxy-1,3-dihydrobenzo[c][1,2]oxaborol-6-yl)-5-methyl-4-(pyridin-2-yl)furan-2-carboxamide] |  |  |  |  |  |  |  |  | 82 µL/min/mg | 45 µM | < 11.9 µL/min/mg | 1.7 µM | 29 µM | 
Cc1c(-c2ccccn2)csc1C(=O)Nc1ccc2c(c1)B(O)OC2 [Compound 30, N-(1-Hydroxy-1,3-dihydrobenzo[c][1,2]oxaborol-6-yl)-3-methyl-4-(pyridin-2-yl)thiophene-2-carboxamide] |  |  |  |  |  |  |  |  | 88 µL/min/mg | 2.3 µM | < 11.9 µL/min/mg | 0.6 µM | 32 µM | 
O=C(Nc1ccc2c(c1)B(O)OC2)c1nnc(-c2ccccn2)o1 [Compound 31, N-(1-Hydroxy-1,3-dihydrobenzo[c][1,2]oxaborol-6-yl)-5-(pyridin-2-yl)-1,3,4-oxadiazole-2-carboxamide] |  | 9.4 µM | 55.0% | 67.3% | 69.0% | 99.7% | 99.4% | 99.4% | 12 µL/min/mg |  |  | 2 µM |  | CC50 at 3 days (PMM cytotoxicity assay; Table 5): > 64 µM; fold weaker against L. donovani compared with L. infantum potency (L. donovani; intramacrophage potency): about 5 fold; CC50 at 3 days (MRC5 cytotoxicity assay; Table 5): > 64 µM; microsomal CLint at 2 h, 1 µM [3, 12]: 19 µL/min/mg; AUC(0-t) [4, 9]: 21000 ng·h/mL
CCCCCCCCCCCCCCCCOP(=O)([O-])OCC[N+](C)(C)C [miltefosine, reference compound] | 33 µM |  |  |  |  |  |  |  |  |  |  |  |  | EC50 at 3 days (PMM cytotoxicity assay; [14]): 33 µM; EC50 (L. donovani; [14]): 10 µM; CC50 at 3 days (MRC5 cytotoxicity assay; Table 4): > 64 µM; EC50 (L. infantum [5]; Table 2, geometric mean of at least three independent assays, read-out: intramacrophage L. infantum EC50): 10 µM
